What was measured:
[1] = system: rat models of neuropathic pain; conditions: rat models of neuropathic pain (Field et al. 1999); cited from earlier work
[2] = system: rats post spinal nerve ligation; assay: Spinal nerve ligation (SNL), von Frey mechanical withdrawal (FIG. 3); assay type: in vivo, Sprague Dawley rats; conditions: oral, 100 mg/kg, 14 days post-SNL, tested 1, 2 and 4 hours
Protocol: Ligation of the L5 and L6 spinal nerves in rats leads to a robust pain state, characterized by tactile allodynia and mechanical hyperalgesia that can be assayed using the von Frey or Hargreaves assays (Kim, S. H. and Chung, J. M. Pain 50 (1992): 355-63). Sprague Dawley rats were housed in the animal vivarium 2 weeks prior to testing and housed on a 12 h light/dark cycle with food and water ad libitum. Under general anesthesia, the L5 and L6 spinal nerves on one side of the rat spine were tightly ligated using sterile surgical suture (Spinal Nerve Ligation, SNL). The incision site of each animal was then closed using standard surgical technique. Spared Nerve Injury: Animals were anesthetized by 2% isoflurane with 98% oxygen inhalation. […] The mechanical allodynia were measured at 60 minutes after administration every day (von Frey Cilia Apparatus, manufactured by Institute of Biology Bioengineering, Chinese Academy of Medical Science).
Baseline mechanical (von Frey) withdrawal responses were tested immediately before SNL surgery and 14 days after. […] Immediately after the 14-day post-surgical baseline responses were measured, Compound A (100 mg/kg), Gabapentin (100 mg/kg), or vehicle (control) were administered orally and voluntary withdrawal from von Frey mechanical stimuli were tested 1 hour, 2 hours and 4 hours later (FIG. 3). […]

[3] = system: rats after intraplantar incision; assay: Rodent paw incision, Hargreaves thermal withdrawal assay (FIG. 1); assay type: in vivo, Sprague Dawley rats; conditions: intravenous, 30 mg/kg, post-surgery baseline, tested 0.5-4 hours
Protocol: The rodent paw incision model involves inducing a surgical incision to the plantar surface of the back paw of a mouse or rat, suturing the incision closed, then testing the area proximal to the wound for changes in sensory perception, such as allodynia or hypersensitivity, at some point in time after the incision (typically 24 hours later)(Brennan T J et al. Pain. 1996 March, 64(3):493-501). Thermal (Hargreaves) and mechanical (von Frey) sensory testing is performed before and 24 hours after surgical incision of the plantar surface of the left back paw of laboratory rats, at a plantar area adjacent to the incision. […]
Plantar incision of the hind paw of the rat produces a profound local inflammatory response characterized by pain hypersensitivity (allodynia) 24 hours after surgery in rats, in similar manner to the post-operative pain observed in humans (Brennan, T. J. et al. Pain. 1996 March; 64(3):493-501). […] Three days prior to testing the compound, thermal (Hargreaves) and mechanical (von Frey) sensitivity were measured using standard techniques described below. […] The thermal sensitivities of the animals were measured before surgery and 24 hours after surgery using the Hargreaves Thermal Withdrawal Assay (FIG. 1) (Kim, S. H. and Chung, J. M. Pain 50 (1992): 355-63). […]

CN1CC[C@]23c4c5ccc(O)c4O[C@H]2[C@@H](O)C=C[C@H]3[C@H]1C5 [morphine]
blocking of static and dynamic allodynia [1]: blocking only static allodynia, and not dynamic allodynia

NCC1(CC(=O)O)CCCCC1 [gabapentin]
reversal of reduced mechanical withdrawal thresholds post spinal nerve ligation [2]: reversed

CC(C)Cc1ccc(C(C)C(=O)O)cc1 (stereo not shown) [ibuprofen]
reversal of reductions in thermal withdrawal thresholds after intraplantar incision [3]: not reversed

CC(C)C[C@H](CN)CC(=O)O [pregablin]
blocking of static and dynamic allodynia [1]: blocking both types of allodynia
